# According to patent US8945879B2, “Methods for recombinant expression of a polypeptide comprising a carbohydrate binding module using a host cell having reduced expression of a protease” (priority 2007, dated 2015):
# Numbered stars: 1 amine (or outer) side, 2 acyl side, 3 side chain; on linkers, the order of the positions; unused ones are H or OH. Square brackets hold non-standard residues; d marks the D form. Peptide text beside a SMILES is read from it. * marks the point of attachment. Sta = CC(C)C[C@H](N)[C@@H](O)CC(=O)O; AMC = Cc1cc(=O)oc2cc(N*)ccc12; Suc = O=C(CCC(=O)[*:2])[*:1]; Isovaleryl = CC(C)CC(=O)*; code Z = not defined here; Boc = CC(C)(C)OC(=O)*
# B1: 19 kDa protease: Aspergillus niger 19 kDa protease (SEQ ID NO: 5) expressed intracellularly in A. oryzae, pooled gel permeation fractions (protein)
# chain: MSPIPSYSRPGRGQHFQDAYGFAEACIAGDRMEIAGQTGMSPTSTEVPPTLEEEVAQAFNNINEVILYTLEKAKPDLRASVKSGWDRVVKIRTYHVQLPQTREKIIGLMVENVKKWCPDHQPTWTMLGIEALPFEGQNLEIEVDVFLG
# modifications: Aspergillus niger
# System: 19 kDa protease
# Test: Effects of inhibitors on the 19 kDa protease (Suc-LLVY-MCA hydrolysis)
# Type: biochemical, Aspergillus niger
# Settings: substrate 0.04 mM Suc-LLVY-MCA, KPB pH 6.7, 37° C.; 10 μl inhibitor stock (10 mM AEBSF, ZnSO4, EDTA; leupeptin 4.5 mg/10 ml and pepstatin A 3 mg/10 ml in DMSO diluted 10 times)
# Protocol: (§1) Five synthetic substrates were purchased from Peptide Institute Co., Osaka. The substrates are Glt-AAF-MCA, Suc-LLVY-MCA, Boc-FSR-MCA, Suc(OMe)-AAPV-MCA, and Z-LLE-MCA. 25 μl of 0.04 mM substrates were preincubated at 37° C. for 5 min. 20 μl of protease sample were mixed with 25 μl of 400 mM phosphate buffer, pH 6.7, 5 μl of 2 M NaCl, and 25 μl of Milli Q water, and then preincubated at 37° C. for 5 min. The reactions were started by mixing the substrate solutions and the enzyme solutions. Increases of fluorescent strength were measured by FL600 Microplate Fluorescence Reader with 360 nm excitation and 460 nm emission filters at 37° C. for 30 min.
# 4-(2-aminoethyl)-benzenesulfonyl fluoride (AEBSF), leupeptin, pepstatin A, ZnSO4, and EDTA were purchased from Wako Chemical Co., Osaka. The inhibitors were 4.5 mg/10 ml leupeptin in DMSO diluted 10 times by Milli Q water, 3 mg/10 ml pepstatin A in DMSO diluted 10 times by Milli-Q water, 10 mM AEBSF, 10 mM ZnSO4, and 10 mM EDTA. The substrate was 0.04 mM Suc-LLVY-MCA. Enzyme solution contains 5 μl of pooled 19 kDa protease fraction, 10 μl of inhibitors, 25 μl of 400 mM KPB, pH 6.7, and 35 μl of Milli-Q water. The substrate solution and the enzyme solutions were preincubated separately at 37° C. for 5 min. The activities were measured as described above.
row,Molecule,residual activity (%)
1,O=C(O)CN(CCN(CC(=O)O)CC(=O)O)CC(=O)O [EDTA],101%
2,"CC(C)CC(=O)N[C@H](C(=O)N[C@H](C(=O)N[C@@H](CC(C)C)[C@@H](O)CC(=O)N[C@@H](C)C(=O)N[C@@H](CC(C)C)[C@@H](O)CC(=O)O)C(C)C)C(C)C [Pepstatin, pepstatin A] (Isovaleryl-VV[Sta]A[Sta]-OH)",91%
3,"NCCc1ccc(S(=O)(=O)F)cc1 [AEBSF, 4-(2-aminoethyl)-benzenesulfonyl fluoride]",100%
4,O=S(=O)([O-])[O-].[Zn+2] [ZnSO4],99%
5,"CC(=O)N[C@@H](CC(C)C)C(=O)N[C@@H](CC(C)C)C(=O)N[C@H](C=O)CCCNC(=N)N [Leupeptin, leupeptin]",89%

# System: not listed separately
# Test: pH profile of the 19 kDa protease
# Type: biochemical, Aspergillus niger
# Settings: phosphate buffer pH 6, 7, 8 and diethanolamine buffer pH 8, 9, 10; 0.04 mM Suc-LLVY-MCA
# Protocol: as §1
# Phosphate buffer pH6, 7, 8, and Diethanolamine buffer pH 8, 9, 10 were used. The substrate solution was 0.04 mM Suc-LLVY-MCA. The enzyme solution contains 5 μl of 19 kDa protease, 25 μl of buffer, 5 μl of 2 M NaCl and 40 μl of Milli Q water. Assay was performed as described before. The 19 kDa protease is an alkaline protease with the pH optimum 8-9.
row,Molecule,pH optimum
1,B1,8-9

# System: 19 kDa protease
# Test: Substrate specificity of the 19 kDa protease (fluorogenic MCA substrates)
# Type: biochemical, Aspergillus niger
# Settings: 0.04 mM substrate solution, phosphate buffer pH 6.7, 37° C., 30 min, fluorescence 360/460 nm; Suc-LLVY-MCA = 100%
# Protocol: as §1
row,Molecule,Substrate specificity (relative activity on substrate)
1,"Glt-AAF-MCA (Glt-Ala-Ala-Phe-{AMC}) [synthetic substrate purchased from Peptide Institute Co., Osaka]",1.6%
2,"Boc-FSR-MCA (Boc-Phe-Ser-Arg-{AMC}) [synthetic substrate purchased from Peptide Institute Co., Osaka]",0.3%
3,"Z-LLE-MCA ({code Z}-Leu-Leu-Glu-{AMC}; reading uncertain; also: printed as Z-LLE-MCA) [synthetic substrate purchased from Peptide Institute Co., Osaka]",0.1%
4,"Suc(OMe)-AAPV-MCA ({Suc(OMe)}-AAPV-{AMC}) [synthetic substrate purchased from Peptide Institute Co., Osaka]",0.2%
5,"Suc-LLVY-MCA (Suc-LLVY-{AMC}) [synthetic substrate purchased from Peptide Institute Co., Osaka]",100.0%

# Same assay, conditions: five synthetic substrates compared, pH 6.7, 37° C.
row,Molecule,substrate ranking (in words)
1,"Suc-LLVY-MCA (Suc-LLVY-{AMC}) [synthetic substrate purchased from Peptide Institute Co., Osaka]",best substrate
